The source of these data is publication PMC7408547, “Bivalent Inhibitor with Selectivity for Trimeric MMP-9 Amplifies Neutrophil Chemotaxis and Enables Functional Studies on MMP-9 Proteoforms” (Cells, 2020).

Each structure is given as a SMILES string. Where “and” joins values, the source holds several entries; their conditions need not be identical. Equal values may be shown once.

Type in all cases: biochemical
The target of assay [1] is T1, recombinant human MMP-9 monomers (Homo sapiens, UniProt P14780).
T1 construct: made in house; host or cells: Sf9 insect cells
Description: Fluorogenic peptide (OmniMMP) degradation assay, recombinant MMP-9 monomers. The following applies: recombinant human MMP-9 (Sf9) mono. The method, then:
(§1) Compounds 5 and 7 were synthesized as previously reported. Full-length human proMMP-9 was produced by recombinant expression in Sf9 insect cells and purified by gelatin-Sepharose chromatography as previously described. Stable full-length proMMP-9 monomers and trimers were separated by glycerol gradient ultracentrifugation as previously described. ProMMP-9 mixture and the separated monomers and trimers were activated by incubation with the catalytic domain of MMP-3 (cat. No. 444217, Merck Millipore, Darmstadt, Germany) as previously described. Activation of proMMP-9 was confirmed by a band shift of ±10 kDa, corresponding to the removal of the auto-inhibitory propeptide domain and by detection of gelatinolytic activity with a previously described gelatin degradation assay. MMP-9 monomers and trimers purified from human neutrophils were purchased (Cat. No. 444,231 and 444232, Sigma-Aldrich, St. Louis, MO, USA). Examples of sample purities and activations can be found in Supplementary Figure S1. Recombinant human proMMP-2 (CHO cell-derived), proMMP-3 (NS0 cell-derived), proMMP-7 (NS0 cell-derived) and proMMP-8 (NS0 cell-derived) were purchased from R & D systems (Minneapolis, MN, USA), dissolved in assay buffer (150 mM NaCl, 5 mM CaCl2, 0.01% Tween-20, 50 mM Tris, pH 7.4) to a concentration of 100 µg/mL and activated by incubation with 1 mM p-aminophenylmercuric acetate for, respectively, 1h, 6h, 2h and 1h. Activation of MMPs was confirmed by a band shift of approximately 10 kDa, corresponding to the removal of the propeptide domain. MMP-14/MT1-MMP (NS0 cell-derived) was also purchased from R & D systems (Minneapolis, MN, USA) and activated by incubation with recombinant human furin (cat. No. 1503-SE-010, R & D systems, Minneapolis, MO, USA) in activation buffer (50 mM Tris, 1 mM CaCl2, 0.5% Brij-35, pH 9) for 1.5 h and activity was tested in assay buffer (50 mM Tris, 3 mM CaCl2, 1 µM ZnCl2, pH 8.5). Active human neutrophil elastase (NE) was purchased from Abcam (Cambridge, UK) and for activity assays of NE the assay buffer was replaced by 200 mM Tris, pH 8.8. ADAM17/TACE (Sf 21 (baculovirus)-derived, R & D systems, Minneapolis, MO, USA) was diluted and evaluated in 25 mM Tris, 2.5 μM ZnCl2, 0.005% Brij-35, pH 9.0. All stocks of the compounds were evaluated for the presence of endotoxin using the EndoZyme II assay (Hyglos bioMérieux, Bernried am Starnberger See, Germany). Endotoxin levels in all concentrated stocks (2.5 mg/mL) were below the accepted limit of 0.5 EU/mL.
To determine the inhibition of gelatinolytic activity, we used a previously optimized gelatin degradation assay. […] […] […] BML-P126-0001, Enzo Life Sciences, Farmingdale, NY, USA) was used at a final concentration of 2.5 µg/mL. For ADAM17 the fluorogenic peptide Mca-PLAQAV-Dpa-RSSSR-NH2 (ES003, R & D systems, Minneapolis, MO, USA) and for neutrophil elastase the fluorogenic substrate MeOSuc-AAPV-AMC (cat. no. 324740, Merck Millipore, Darmstadt, Germany) were used. Proteolytic activity was determined by linear regression of the fluorescence curve and the percentage inhibition was calculated through comparison with the positive control (no inhibitors). When testing supernatants from human neutrophils, the assay was performed in the presence of 20 µM neutrophil elastase inhibitor (Elastase Inhibitor IV, Calbiochem, Darmstadt, Germany).

In assay [2] the target is T2, MMP-8/neutrophil collagenase (Homo sapiens, UniProt P22894).
T2 construct: purchased R & D systems; host or cells: NS0 cells
Kind of assay: MMP-8 OmniMMP peptide assay. The note with it: for IC50: OmniMMP substrate peptide. The method, then: Compounds 5 and 7 were synthesized as previously reported. Full-length human proMMP-9 was produced by recombinant expression in Sf9 insect cells and purified by gelatin-Sepharose chromatography as previously described. Stable full-length proMMP-9 monomers and trimers were separated by glycerol gradient ultracentrifugation as previously described. ProMMP-9 mixture and the separated monomers and trimers were activated by incubation with the catalytic domain of MMP-3 (cat. No. 444217, Merck Millipore, Darmstadt, Germany) as previously described. Activation of proMMP-9 was confirmed by a band shift of ±10 kDa, corresponding to the removal of the auto-inhibitory propeptide domain and by detection of gelatinolytic activity with a previously described gelatin degradation assay. MMP-9 monomers and trimers purified from human neutrophils were purchased (Cat. No. 444,231 and 444232, Sigma-Aldrich, St. Louis, MO, USA). Examples of sample purities and activations can be found in Supplementary Figure S1. […] ADAM17/TACE (Sf 21 (baculovirus)-derived, R & D systems, Minneapolis, MO, USA) was diluted and evaluated in 25 mM Tris, 2.5 μM ZnCl2, 0.005% Brij-35, pH 9.0. All stocks of the compounds were evaluated for the presence of endotoxin using the EndoZyme II assay (Hyglos bioMérieux, Bernried am Starnberger See, Germany). […]
(§2) To determine the inhibition of gelatinolytic activity, we used a previously optimized gelatin degradation assay. […] Next, dye-quenched gelatin (DQ™-gelatin, Invitrogen, Carlsbad, CA, USA) was added at a final concentration of 2.5 µg/mL and the increase in fluorescence over time was measured with the CLARIOstar microplate reader (BMG Labtech, Ortenberg, Germany). […] Proteolytic activity was determined by linear regression of the fluorescence curve and the percentage inhibition was calculated through comparison with the positive control (no inhibitors). […]

Assay [3] deals with T3, recombinant human MMP-9 trimers (Homo sapiens, UniProt P14780).
T3 construct: made in house; host or cells: Sf9 insect cells
Kind of assay: Gelatin degradation assay, recombinant MMP-9 trimers. The method, then: as §1
(§3) To determine the inhibition of gelatinolytic activity, we used a previously optimized gelatin degradation assay. Activated MMP-9, activated MMP-2, neutrophil elastase or supernatants of stimulated neutrophils, were incubated with different concentrations of inhibitors and incubated for 30 min at 37 °C. Next, dye-quenched gelatin (DQ™-gelatin, Invitrogen, Carlsbad, CA, USA) was added at a final concentration of 2.5 µg/mL and the increase in fluorescence over time was measured with the CLARIOstar microplate reader (BMG Labtech, Ortenberg, Germany). For other MMPs, the OmniMMP substrate peptide (Mca-PLGL-Dpa-AR-NH2, cat. no. BML-P126-0001, Enzo Life Sciences, Farmingdale, NY, USA) was used at a final concentration of 2.5 µg/mL. For ADAM17 the fluorogenic peptide Mca-PLAQAV-Dpa-RSSSR-NH2 (ES003, R & D systems, Minneapolis, MO, USA) and for neutrophil elastase the fluorogenic substrate MeOSuc-AAPV-AMC (cat. no. 324740, Merck Millipore, Darmstadt, Germany) were used. Proteolytic activity was determined by linear regression of the fluorescence curve and the percentage inhibition was calculated through comparison with the positive control (no inhibitors). When testing supernatants from human neutrophils, the assay was performed in the presence of 20 µM neutrophil elastase inhibitor (Elastase Inhibitor IV, Calbiochem, Darmstadt, Germany).

The target of assay [4] is T3, recombinant human MMP-9 trimers. Description: Fluorogenic peptide (OmniMMP) degradation assay, recombinant MMP-9 trimers. The note with it: recombinant human MMP-9 (Sf9) tri. As for the experimental part: as §1, §3
A further assay has as its target T4, TACE/ADAM17 (Homo sapiens, UniProt P78536).
T4 construct: purchased R & D systems; host or cells: Sf 21 (baculovirus)
Description: TACE/ADAM17 fluorogenic peptide assay. The note with it: Mca-PLAQAV-Dpa-RSSSR-NH2 fluorogenic peptide, tested up to an inhibitor concentration of 50 µM. The method, then: as §1, with “Active human neutrophil elastase (NE) was purchased from Abcam (Cambridge, UK) and for activity assays of NE the assay buffer was replaced by 200 mM Tris, pH 8.8.” left out, “Endotoxin levels in all concentrated stocks (2.5 mg/mL) were below the accepted limit of 0.5 EU/mL.” left out
as §2

The mark [5] stands for this setting: recombinant human MMP-9 (Sf9) tri, gelatin degradation.

T1 sequence (P14780 107-707 limits assumed): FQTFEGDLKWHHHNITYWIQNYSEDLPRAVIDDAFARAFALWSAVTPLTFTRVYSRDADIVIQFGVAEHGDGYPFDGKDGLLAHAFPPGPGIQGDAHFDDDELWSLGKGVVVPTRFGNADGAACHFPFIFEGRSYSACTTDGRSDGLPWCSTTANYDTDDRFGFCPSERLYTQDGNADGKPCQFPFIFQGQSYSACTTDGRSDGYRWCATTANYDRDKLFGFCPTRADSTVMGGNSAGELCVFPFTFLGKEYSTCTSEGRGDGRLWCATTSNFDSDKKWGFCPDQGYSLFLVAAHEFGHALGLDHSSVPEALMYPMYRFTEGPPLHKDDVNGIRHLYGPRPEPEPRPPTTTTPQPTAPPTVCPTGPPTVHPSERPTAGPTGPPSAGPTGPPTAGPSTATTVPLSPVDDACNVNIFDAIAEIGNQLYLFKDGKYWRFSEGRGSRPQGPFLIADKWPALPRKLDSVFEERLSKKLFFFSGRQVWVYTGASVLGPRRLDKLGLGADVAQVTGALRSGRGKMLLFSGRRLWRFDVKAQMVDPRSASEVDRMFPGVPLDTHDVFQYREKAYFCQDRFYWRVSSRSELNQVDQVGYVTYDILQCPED
T3 sequence (P14780 107-707 limits assumed): as above
T2 sequence (P22894 101-467): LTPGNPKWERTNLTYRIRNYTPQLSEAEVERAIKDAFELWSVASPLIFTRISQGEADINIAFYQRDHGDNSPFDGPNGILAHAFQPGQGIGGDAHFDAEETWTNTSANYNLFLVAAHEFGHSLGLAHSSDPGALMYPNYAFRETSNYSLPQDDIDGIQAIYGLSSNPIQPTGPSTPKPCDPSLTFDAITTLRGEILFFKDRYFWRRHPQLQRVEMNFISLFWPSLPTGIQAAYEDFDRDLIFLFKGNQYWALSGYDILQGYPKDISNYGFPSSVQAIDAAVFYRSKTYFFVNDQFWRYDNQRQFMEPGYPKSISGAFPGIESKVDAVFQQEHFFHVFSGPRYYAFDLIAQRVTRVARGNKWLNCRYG
T4 sequence (P78536 215-824): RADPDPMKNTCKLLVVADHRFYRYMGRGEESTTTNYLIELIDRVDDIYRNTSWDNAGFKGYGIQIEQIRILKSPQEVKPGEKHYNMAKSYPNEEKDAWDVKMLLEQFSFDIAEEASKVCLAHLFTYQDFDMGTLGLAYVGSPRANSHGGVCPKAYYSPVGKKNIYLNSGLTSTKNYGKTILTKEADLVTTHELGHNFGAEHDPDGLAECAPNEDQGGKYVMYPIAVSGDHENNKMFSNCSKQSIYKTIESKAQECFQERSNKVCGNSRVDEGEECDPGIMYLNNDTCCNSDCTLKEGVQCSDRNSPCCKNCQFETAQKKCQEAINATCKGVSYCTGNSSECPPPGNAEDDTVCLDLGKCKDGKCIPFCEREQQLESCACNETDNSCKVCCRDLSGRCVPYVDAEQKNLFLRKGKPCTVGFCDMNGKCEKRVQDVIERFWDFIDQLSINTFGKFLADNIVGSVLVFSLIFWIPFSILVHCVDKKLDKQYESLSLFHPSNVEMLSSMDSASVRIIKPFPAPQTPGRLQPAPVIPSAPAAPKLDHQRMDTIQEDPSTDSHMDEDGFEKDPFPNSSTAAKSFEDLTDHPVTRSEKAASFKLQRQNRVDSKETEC

By IC25 is commonly meant the point of the concentration-response curve where the effect stands at 25%. Broadly, the IC50 is the point on the concentration scale where inhibition reaches its midpoint. As usually defined, the IC75 is the concentration at which the effect reaches the 75% level. Consider `CC(C)[C@H](C(=O)O)N(CCNC(=O)c1cccc(C(=O)NCCN([C@@H](C(=O)O)C(C)C)S(=O)(=O)c2ccc(-c3ccccc3)cc2)c1)S(=O)(=O)c1ccc(-c2ccccc2)cc1` [Compound 7], for which the IC25 in assay [1] amounted to 10.5 nM; in assay [4] it was 0.0017 nM. The IC50 in assay [1] is 56 nM; in assay [2], 14.5 nM; in assay [3] (setting [5]), 0.18 nM; in assay [4], ~0.1 nM and 0.1 nM; against TACE/ADAM17, “no inhibition ^†”; on TACE/ADAM17 (listed as compound 7), “not inhibited”. The IC75 is listed as 296 nM in assay [1], 18 nM in assay [3] (setting [5]) and 6.0 nM in assay [4]. Moreover, the “fold less inhibition of MMP-8 than of trimeric MMP-9” value in assay [2] (peptide substrate) was “more than 100 fold”. Besides, in assay [3] (recombinant human MMP-9, gelatin substrate), the “fold more potent at inhibiting gelatinolysis by trimeric versus monomeric MMP-9” value was “over 1000 fold”.

Turning to `CC(C)[C@H](C(=O)O)N(CCNC(=O)c1ccccc1)S(=O)(=O)c1ccc(-c2ccccc2)cc1` [Compound 5], the IC25 in assay [1] was 232 nM; in assay [3] (setting [5]), 526 nM; in assay [4], 237 nM. The IC50 is 718 nM in assay [1]; 331 nM in assay [2]; 2250 nM in assay [3] (setting [5]); 724 nM in assay [4]; “no inhibition ^†” on TACE/ADAM17; “not inhibited” against TACE/ADAM17 (listed as compound 5). Also, the IC75 is recorded as 2228 nM in assay [1], 9660 nM in assay [3] (setting [5]) and 2211 nM in assay [4].
